Data reported in publication PMC6095626, “Screening of the Pathogen Box for inhibitors with dual efficacy against Giardia lamblia and Cryptosporidium parvum” (PLoS Neglected Tropical Diseases, 2018).

What was measured:
[1] = system: C. parvum (UGA1 Nluc expressing strain in HCT-8 cells); experiment: microbe, parasite or virus in culture; type: cell-based, Cryptosporidium parvum; settings: initial Pathogen Box screen, single concentration 10 µM, inhibition compared to DMSO wells
Procedure, shortened: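 Parasite growth quantified by NanoLuc luminescence from lysed infected HCT-8 cells, with EC50 fitted from dose curves. Compounds, single-dose 10 μM or serially diluted, were added to confluent 48 h monolayers before infection with bleached UGA1 Nluc oocysts.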

[2] = system: G. lamblia trophozoites (luciferase expressing, WBC6); experiment: microbe, parasite or virus in culture; type: cell-based, Giardia lamblia; settings: initial Pathogen Box screen, single concentration 16 µM, inhibition compared to DMSO wells
Procedure, shortened: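 Incubation ran 24 h at 37 °C under anaerobic conditions, with compound added in equal volume to trophozoites (WBC6, luciferase-expressing, 250,000 cells/mL). Bioluminescence was the read-out, cross-checked by MOXI Z counts on a duplicate plate; metronidazole served as control (1:2 dilutions from 40 μM).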

Structure (SMILES)	Crypto (10 uM) Mean % inhibition [1]	Giardia (16 uM) Mean % inhibition [2]
CCOc1ccc(-c2nc(CNCCc3ccc(F)cc3)cs2)cc1 [MMV688938]	X* (Mean or standard deviation are negative but not significantly different from the control to be a growth promoter)	65%
Cc1ccc2nc(C)c(-c3ccn(Cc4ccccc4)n3)n2c1 [MMV688939]	73%	X* (Mean or standard deviation are negative but not significantly different from the control to be a growth promoter)
COc1cc(CN2CCC3(C=Cc4ccccc43)CC2)cc2c1OCO2 [MMV688941]	56%	62%
CC(C)(C)C(O)C(Oc1ccc(-c2ccccc2)cc1)n1cncn1 (stereo not shown) [MMV688942]	X* (Mean or standard deviation are negative but not significantly different from the control to be a growth promoter)	40%
CC1COC(Cn2cncn2)(c2ccc(Oc3ccc(Cl)cc3)cc2Cl)O1 (stereo not shown) [MMV688943]	46%	81%
Cc1cc(NC(=O)c2ccc(Oc3ccc(Cl)cc3O)o2)no1 [MMV688955]	50%	26%
CCc1cc(=O)n(C)c(SC(C)C(=O)Nc2ccc(F)cc2)n1 (stereo not shown) [MMV688980]	X* (Mean or standard deviation are negative but not significantly different from the control to be a growth promoter)	17%
CCCCCCCCCCCCCCCCOP(=O)([O-])OCC[N+](C)(C)C [MMV688990]	X* (Mean or standard deviation are negative but not significantly different from the control to be a growth promoter)	X* (Mean or standard deviation are negative but not significantly different from the control to be a growth promoter)
CNC1C(OC2C(OC3C(O)C(O)C(N=C(N)N)C(O)C3N=C(N)N)OC(C)C2(O)C=O)OC(CO)C(O)C1O (stereo not shown) [MMV688994]	47%	X* (Mean or standard deviation are negative but not significantly different from the control to be a growth promoter)
C[C@@H]1[C@H](O)[C@@H](C)/C=C/C=C/C=C/C=C/C=C/C=C/C=C/[C@H](O[C@@H]2O[C@H](C)[C@@H](O)[C@H](N)[C@@H]2O)C[C@@H]2O[C@](O)(C[C@@H](O)C[C@@H](O)[C@H](O)CC[C@@H](O)C[C@@H](O)CC(=O)O[C@H]1C)C[C@H](O)[C@H]2C(=O)O [MMV689000]	X* (Mean or standard deviation are negative but not significantly different from the control to be a growth promoter)	41%
Cc1ccc(S(=O)(=O)Nc2ccc(CN3CCN(C(=O)c4cccc(C#N)c4)CC3)cc2)cc1 [MMV689028]	58%	56%
COc1ccc(S(=O)(=O)Nc2ccc(CN3CCN(C(=O)c4cccc(C#N)c4)CC3)cc2)cc1 [MMV689029]	54%	54%
Clc1ccc(CN2CCN(C3=NCCN3)CC2)cc1Cl [MMV689060]	50%	X* (Mean or standard deviation are negative but not significantly different from the control to be a growth promoter)
CC(=O)Nc1ccc(-c2noc(CC3CCCN(Cc4cccc(F)c4C)C3)n2)cc1 (stereo not shown) [MMV689061]	59%	17%
FC(F)(F)c1ccc(N(c2cccnc2)C2CCN(c3ccc(C(F)(F)F)cn3)CC2)cc1 [MMV689243]	X* (Mean or standard deviation are negative but not significantly different from the control to be a growth promoter)	11%
O=C([C@@H](c1ccc(Cl)cc1)c1cccnc1)N1CCN(c2ccc(C(F)(F)F)cc2)CC1 [MMV689244]	X* (Mean or standard deviation are negative but not significantly different from the control to be a growth promoter)	33%
Nc1ncnc2c1ncn2C[C@@H](O)[C@@H](O)C(=O)O [MMV689255]	46%	33%
